Test results: article PMC5429621 (Scientific Reports, 2017)
Where a chain is given by its changes, count along the chain named.

What was measured:
[1] = test system: hP2X7-2Nβ 74–79 C mutants; test: two-electrode voltage clamp, Xenopus oocytes; assay type: cell-based, human; details: response to EC90 ATP
From the text: (§1) The hP2X1R was a gift from Dr Lin-Hua Jiang (University of Leeds, UK) and the hP2X1R cDNA has been described previously. Chimeras were generated by megaprimer-mediated domain swapping. In addition to chimeras, point mutations, deletions and insertions were made using the QuikChange (Stratagene) or Q5 (New England Bioscience) mutagenesis kits. The production of the correct mutations and absence of coding errors was verified by DNA sequencing (Automated ABI Sequencing Service, University of Leicester, UK).
P2XR constructs were transcribed to produce sense-strand cRNA (mMessage mMachine, Ambion, Austin, TX). […]
Two-electrode voltage clamp recordings were carried out using a GeneClamp 500B amplifier with a Digidata 1322 A analog to digital convertor and pCLAMP 8.2 acquisition software (Molecular Devices, Menolo Park, CA) at a holding potential of −60 mV. ATP (sodium salt, Sigma) was applied via a U-tube perfusion system for 3 s at 3–5 minute intervals to allow reproducible responses to be recorded. […]
Concentration response curves were normalized to the maximal response and fitted with the Hill equation (variable slope) with GraphPad Prism 6 (Graphpad software, San Diego, CA). […] Any significant differences were calculated by one-way analysis of variance, followed by Bonferroni’s test (using GraphPad Prism 6). […]

hP2X7-2Nβ K297G = target: T1, hP2X7-2Nβ K297G (Homo sapiens, UniProt Q99572, I21V/K297G/M24R/N16P/N25R/Q22R/R20V/S23N/T19I/Y26L); test: two-electrode voltage clamp, Xenopus oocytes; assay type: cell-based; details: relative to P2X7-2Nβ
T1 construct: expressed in transfected cells; host or cells: Xenopus laevis oocytes (cRNA injection)
T1 sequence (Q99572 1-595 N16P/T19I/R20V/I21V/Q22R/S23N/M24R/N25R/Y26L/K297G): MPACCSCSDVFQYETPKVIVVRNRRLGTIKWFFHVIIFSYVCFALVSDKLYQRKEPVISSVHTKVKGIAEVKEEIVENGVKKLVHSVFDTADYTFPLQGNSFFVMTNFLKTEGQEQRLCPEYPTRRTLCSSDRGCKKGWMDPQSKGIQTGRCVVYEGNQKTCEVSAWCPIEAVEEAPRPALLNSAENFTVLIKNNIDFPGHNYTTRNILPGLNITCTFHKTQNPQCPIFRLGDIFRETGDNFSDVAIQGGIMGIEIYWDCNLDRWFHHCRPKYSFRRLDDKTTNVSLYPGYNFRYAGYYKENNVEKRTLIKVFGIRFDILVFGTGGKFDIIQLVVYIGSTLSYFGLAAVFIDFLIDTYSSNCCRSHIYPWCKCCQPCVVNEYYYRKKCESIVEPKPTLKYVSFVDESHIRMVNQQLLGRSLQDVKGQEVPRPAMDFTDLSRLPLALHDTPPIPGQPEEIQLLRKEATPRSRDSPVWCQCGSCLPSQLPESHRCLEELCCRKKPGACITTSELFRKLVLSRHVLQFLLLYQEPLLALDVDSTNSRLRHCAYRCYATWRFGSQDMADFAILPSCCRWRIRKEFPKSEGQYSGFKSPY
From the text: as §1
(§2) P2XR constructs were transcribed to produce sense-strand cRNA (mMessage mMachine, Ambion, Austin, TX). Manually defoliculated stage V Xenopus laevis oocytes were injected with 50 nl (50 ng) of cRNA using an Inject + Matic microinjector (J.A. Gaby, InjectMatic, Geneva, Switzerland) and stored at 16 °C in ND96 buffer (in mM, NaCl 96, KCl 2, CaCl2 1.8, MgCl2 1, sodium pyruvate 5, HEPES 5 (pH 7.6) supplemented with 50 µg/ml gentamycin and 50 µg/ml tetracycline). For electrophysiological recordings (3–7 days post-injection) oocytes were bathed in divalent free ND96 buffer (in mM, NaCl 96, KCl 2, sodium pyruvate 5, HEPES 5 and 0.1 flufenamic acid, pH 7.6).
(§3) ATP (sodium salt, Sigma) was applied via a U-tube perfusion system for 3 s at 3–5 minute intervals to allow reproducible responses to be recorded. […] To standardize for any change in ATP sensitivity at mutant receptors antagonists were co-applied with an EC90 concentration of ATP.
(§4) Concentration response curves were normalized to the maximal response and fitted with the Hill equation (variable slope) with GraphPad Prism 6 (Graphpad software, San Diego, CA). […] Individual concentration response curves were generated for individual experiments and statistical analysis was carried out on the data generated. In the figures the inhibition curves are fitted to the mean normalized data. Any significant differences were calculated by one-way analysis of variance, followed by Bonferroni’s test (using GraphPad Prism 6). Data are shown as mean ± SEM.

hP2X7-2Nβ K110Y = target: T2, hP2X7-2Nβ K110Y (Homo sapiens, UniProt Q99572, I21V/K110Y/M24R/N16P/N25R/Q22R/R20V/S23N/T19I/Y26L); test: two-electrode voltage clamp, Xenopus oocytes; assay type: cell-based; details: relative to P2X7-2Nβ
T2 construct: expressed in transfected cells; host or cells: Xenopus laevis oocytes (cRNA injection)
T2 sequence (Q99572 1-595 N16P/T19I/R20V/I21V/Q22R/S23N/M24R/N25R/Y26L/K110Y): T1 sequence (Q99572 1-595 N16P/T19I/R20V/I21V/Q22R/S23N/M24R/N25R/Y26L/K297G) with K110Y, G297K
From the text: as §1, §2, §3, §4

other P2XR subtypes = details: cited from earlier work
P2X7 receptor (P2X7R) = details: read-out: ATP EC50, physiological concentrations of calcium and magnesium; cited from earlier work

SMILES | level of inhibition to 30 nM AZ10606120 [1] | increase in AZ10606120 sensitivity (hP2X7-2Nβ K297G) | increase in sensitivity to AZ10606120 (hP2X7-2Nβ K110Y) | effect at other P2XR subtypes (other P2XR subtypes) | EC50 (P2X7 receptor (P2X7R))
Cl.Cl.O=C(CC12CC3CC(CC(C3)C1)C2)Nc1cccc2nc(NCCNCCO)ccc12 [AZ10606120, N-[2-[[2-[(2-Hydroxyethyl)amino]ethyl]amino]-5-quinolinyl]-2-tricyclo[3.3.1.13,7]dec-1-ylacetamide dihydrochloride] | ~ 70% | > 100 fold | ~ 100 fold | little or no effect | 
Nc1ncnc2c1ncn2[C@@H]1O[C@H](COP(=O)(O)OP(=O)(O)OP(=O)(O)O)[C@@H](O)[C@H]1O [ATP] |  |  |  |  | 300 to 1000 µM
